# Measured values: patent US4260630A, “Skin diseases” (priority 1977, dated 1981)
# Experiments:
# [1] = test system: cutaneous tissue; details: in vivo; cited from earlier work
# [2] = Comparison of activity with compounds of analogous structure; details: comparison with the compounds of the invention
# Description: V. In order to compare the activity of the compounds of the invention with compounds having an analogous structure
# [3] = test system: DNA; details: cited from earlier work
# [4] = test system: Saccharomyces cerevisiae; assay: Induction of nuclear back mutations (his- to His+) in yeast; details: vs 3-CPs or angelicin plus 365 nm light
# Procedure: A wild-type strain 211-1aM (29) of Saccharomyces cerivisiae was used, and the following mutants derived from it: S24-12c rad2-20 deficient in excision repair and S25-13b rad9-4 likely to be blocked in a recombinational repair pathway; a double mutant S 2057NL-24 rad2-20 -rad9-4 clone B was obtained by tetrad analysis of a heterozygote [formula]
# The media and culture conditions used were as described in D. Averbeck, E. Moustacchi, (1975) Biochim. Biophys. Acta, 395, 393-404.
# 10^6 cells/ml in saline (0.9% NaCl) were treated for 30 minutes with the drugs at a final concentration of 10 μg/ml and 1.2% ethanol present.
# A Philips HPW 125 culot Edison high pressure mercury lamp was used with maximal output at the wavelength 365 nm. The irradiation dose measured by actinometry was 10 J/m^2 per sec., using the following set up: 10 ml of actinometer solution (or the cell suspension, usually 1×10^6 cells/ml), stirred continuously by a magnetic stirrer, were irradiated at room temperature in an open Petri dish of 10 cm diameter at a distance of 10 cm from the center of the light bulb which was mounted horizontally. A 2 mm thick pyrex glass sheet (20×25 cm) was placed in the center of the light beam to cut out UV light of wavelength below 340 nm. […]
# [5] = test system: skin of homozygote albino mice strain XVII nc/Z; assay: Chronic topical application on the ears of mice plus 365 nm UV irradiation (tumors, skin reactions); format: in vivo
# Procedure: The experiments were effected on groups of 40 mice, male and female.
# After 115 topical applications of psoralen, followed each time by 10 minutes of irradiation (cumulative doses of 2.07×10^6 J/m^2), 100% of the animals developed a tumor; 50% having tumors on two ears.
# 3-CPs was also tested intraperitoneally (36 injections of 0.4 mg each over a period of 7 weeks).
# In all these experiments the U.V. lamp was of the type of HPW 125 W, manufactured by Philips.
# [6] = test system: Saccharomyces cerevisiae; assay: Repair of photoinduced lesions in yeast (repair mutants, agar holding); format: cell-based; details: wild-type cells
# Description: Biophys. Acta, 395, 393-404.
# Consequently, it appears that the excision repair pathway in wild type and rad9-4 cells is essential in AHR for both compounds.
# [7] = 115 topical applications, cumulative doses 2.07×10^6 J/m^2
compound,measurement,setting,value
"Cc1cc2cc3c(C)c(C)c(=O)oc3c(C)c2o1 [3,4,5',8-tetramethylpsoralen]",photosensitizing activity,[1],inactive or to induce very weak photosensitivity
"Cc1cc2cc3cc(C)c(=O)oc3c(C)c2o1 [3,5',8-trimethylpsoralen]",photosensitizing activity,[1],inactive or to induce very weak photosensitivity
CC(C)(C)OC(=O)c1cc2cc3ccoc3cc2oc1=O [psoralen 3-t-butylcarboxylate],activity,[2],inactive
"3,4-dibenzo-5,8-dimethylpsoralen",photosensitizing activity,[1],inactive or to induce very weak photosensitivity
"Cc1cc2cc3c4c(c(=O)oc3c(C)c2o1)CCCC4 [3,4-cyclohexeno-5',8-dimethylpsoralen]",photosensitizing activity,[1],inactive or to induce very weak photosensitivity
Cc1cc2cc3ccoc3cc2oc1=O [3-methylpsoralen],photosensitizing activity,[1],inactive or to induce very weak photosensitivity
"Cc1cc2cc3c(C)cc(=O)oc3c(C)c2o1 [4,5',8-trimethylpsoralen]",reactivity with DNA in vitro relative to 8-MOP,[3]; in vitro,about 12 times more reactive
O=c1ccc2cc3ccoc3cc2o1 [psoralen],effectiveness in inducing nuclear back mutations (his- to His+) relative to monofunctional furocoumarins or 254 nm UV alone,[4],at least 10 fold
same,animals developing a tumor on ears,"[5]; 24 applications, cumulative dose 4.5×10^5 J/m^2",3%
same,animals developing a tumor on ears,[5]; [7],100%
same,animals having tumors on two ears,[5]; [7],50%
same,cutaneous reactions,"[5]; chronic topical, two ears, 365 nm UV","significant cutaneous reactions, such as an erythema, followed by intensive chronic inflammation even followed by necrosis"
same,dose dependence of tumor development on ears,"[5]; mouse, in vivo",dose dependent
same,kinetics of agar holding recovery (AHR),[6],same kinetics of AHR
same,photosensitizing activity,[1],most effective photo-sensitizers
"CCCCc1c(C)c2cc3cc(C)oc3c(C)c2oc1=O [3-n-butyl-4,5',8-trimethylpsoralen]",photosensitizing activity,[1],inactive or to induce very weak photosensitivity
O=c1ccc2ccc3occc3c2o1 [angelicin],binding to DNA and RNA,[3],bind equally well to DNA and RNA
same,kinetics of agar holding recovery (AHR),[6],same kinetics of AHR
